Measured values taken from patent US20210246122A1, “Triazine Compounds and Uses Thereof” (Aduro Biotech, Inc., priority 2018, published 2021).

Tests used:
[1] = molecular target: T1, Human cGAS amino acids 155-522 (Homo sapiens, UniProt Q8N884); test: cGAS activity assay (DNA-activated cGAS, remaining ATP measured by Kinase-Glo Max luciferase assay); type: biochemical; conditions: 300 nM purified cGAS, 1 μM dsDNA, 250 μM ATP, 100 μM GTP, 37° C. for 1.25 hours
T1 construct: hexahistidine tag (N, cleaved yes); made in house; host or cells: E. coli BL21 DE3 Rosetta 2
T1 sequence (Q8N884 157-522): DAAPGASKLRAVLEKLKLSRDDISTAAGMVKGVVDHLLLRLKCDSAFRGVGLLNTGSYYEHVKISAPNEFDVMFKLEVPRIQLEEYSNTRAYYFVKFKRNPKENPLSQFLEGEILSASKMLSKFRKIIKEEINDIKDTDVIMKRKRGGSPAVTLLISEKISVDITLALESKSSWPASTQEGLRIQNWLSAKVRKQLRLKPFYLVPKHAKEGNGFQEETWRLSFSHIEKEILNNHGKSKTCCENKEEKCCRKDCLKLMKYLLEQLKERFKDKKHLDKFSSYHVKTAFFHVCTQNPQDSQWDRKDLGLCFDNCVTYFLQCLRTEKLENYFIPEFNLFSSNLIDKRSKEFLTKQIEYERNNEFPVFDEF
Experimental: IC50 values were determined as follows:
Human cGAS sequence encoding amino acids 155-522 was cloned into a pET (EMD Millipore) based expression plasmid. The resulting construct contained a tandem N-terminal hexahistidine tag, maltose binding protein fusion followed by a tobacco etch virus protease cleavable linker preceding cGAS amino acids 155-522.
Construct sequence: Amino acids 155-522, Human cGAS
Protein was expressed and purified from E. coli BL21 DE3 Rosetta 2 (EMD Millipore) cells using standard techniques. Cells were grown in 2× yeast extract tryptone medium and expression was initiated via the addition of isopropyl β-D-1-thiogalactopyranoside. Expression proceeded overnight at 18° C. Cells were harvested by centrifugation and subsequently lysed via sonication. Insoluble fraction was removed by centrifugation. Maltose binding protein (MBP) fusion proteins were purified on a dextrin sepharose column (GE Healthcare) and the MBP tag was removed using tobacco etch virus protease overnight during dialysis. Protein was further purified on a heparin column (GE Healthcare) and eluted using a NaCl gradient. Column fraction were pooled and further purified on a Superdex 75 gel filtration column (GE Healthcare). Protein was quantified using 280 nm absorbance. Protein was then flash frozen in liquid nitrogen and stored at −80° C. until use.
Potential antagonists were diluted in 100% dimethyl sulfoxide and added to the reaction. Final dimethyl sulfoxide concentration was 5%. The compounds were tested from 1 μM with either 3- or 4-fold serial dilutions down to 0.000051 or 0.000004 μM respectively.
Two complementary DNA oligos (IDT DNA) were annealed by slow cooling from 95° C. The resulting double stranded DNA was used to activate cGAS.
Reactions were performed at 37° C. for 1.25 hours. Reaction buffer: 20 mM Tris HCl pH 9, 100 mM NaCl, 5 mM MgCl2, 0.1 mg/ml bovine gamma globulin, 250 μM adenosine triphosphate, 100 μM guanosine triphosphate, 0.5 mM Tris(2-carboxyethyl)phosphine hydrochloride, 1 μM double stranded DNA and 300 nM purified cGAS protein.
Reactions were stopped and ATP levels in the reaction were measured using a luciferase based assay. Promega Kinase-Glo Max Assay. Luminescence was measured on a plate reader (Molecular Devices). Values were normalized to control wells lacking compound.

cGAS/STING pathway = test: THP1 cell-based cGAS/STING pathway activity assay (luciferase reporter linked to IRF-3 activation); conditions: Homo sapiens, THP-1; THP1 cells, IRF-3 linked luciferase reporter
Experimental: A cellular assay can be used to assess the compounds of the invention for their ability to inhibit the cGAS/STING pathway. Cells that express a luciferase-based reporter that is linked to IRF-3 activation are used to determine response as a function of compound concentration. Such an assay is described in Vincent et al., Nature Communications 2017, 8(1):750, doi: 10.1038/s41467-017-00833-9. Compounds of the invention were assessed using similar assay methods in a THP1 cell assay to generate IC50 values as provided in the following Table 8. In this table, activity level “A” indicates an IC50 value less than 20 μM, “B” indicates an IC50 value between 20 and 100 μM, and “C” indicates an IC50 value above the upper limit of the assay (100 μM), or where an IC50 value could not be generated from the data.

Row | Compound | IC50 [1] [µM] | IC50 (cGAS/STING pathway) [µM]
1 | COC(=O)[C@@H](Cc1ccc(C#N)cc1)Nc1nc(NCc2nc3cc(F)ccc3[nH]2)nc(Nc2cccc(CN3CCN(C(=O)c4nccnc4O)CC3)c2)n1 [TA1027, methyl (R)-3-(4-cyanophenyl)-2-((4-(((5-fluoro-1H-benzo[d]imidazol-2-yl)methyl)amino)-6-((3-((4-(3-hydroxypyrazine-2-carbonyl)piperazin-1-yl)methyl)phenyl)amino)-1,3,5-triazin-2-yl)amino)propanoate] | < 20 | > 100
2 | Cc1cc2nc(CN(C)c3nc(Nc4cccc(CN5CCN(C(=O)c6cc7[nH]cnc7cc6C)CC5)c4)nc(N[C@@H](Cc4ccc(C#N)cc4)C(=O)N(C)C)n3)[nH]c2cc1C [TA1015, (S)-3-(4-cyanophenyl)-2-((4-(((5,6-dimethyl-1H-benzo[d]imidazol-2-yl)methyl)(methyl)amino)-6-((3-((4-(5-methyl-1H-benzo[d]imidazole-6-carbonyl)piperazin-1-yl)methyl)phenyl)amino)-1,3,5-triazin-2-yl)amino)-N,N-dimethylpropanamide] | > 250 | 
3 | CN(C)C(=O)[C@H](Cc1ccc(C#N)cc1)Nc1nc(NCc2nc3cc(F)ccc3[nH]2)nc(Nc2cccc(CN3CCN(C(=O)OC(C)(C)C)CC3)c2)n1 [TA1036, tert-butyl (S)-4-(3-((4-((3-(4-cyanophenyl)-1-(dimethylamino)-1-oxopropan-2-yl)amino)-6-(((5-fluoro-1H-benzo[d]imidazol-2-yl)methyl)amino)-1,3,5-triazin-2-yl)amino)benzyl)piperazine-1-carboxylate] | > 250 | 
4 | COC(=O)[C@H](Cc1ccc(C#N)cc1)Nc1nc(Nc2cccc(CN3CCN(C=O)CC3)c2)nc(OC)n1 [TA1077, methyl (S)-3-(4-cyanophenyl)-2-((4-((3-((4-formylpiperazin-1-yl)methyl)phenyl)amino)-6-methoxy-1,3,5-triazin-2-yl)amino)propanoate] | > 250 | 
5 | COC(=O)[C@H](Cc1ccc(C#N)cc1)Nc1nc(NCc2ccccc2)nc(Nc2cccc(CN3CCN(C(=O)c4nccnc4O)CC3)c2)n1 [TA1050, methyl (S)-2-((4-(benzylamino)-6-((3-((4-(3-hydroxypyrazine-2-carbonyl)piperazin-1-yl)methyl)phenyl)amino)-1,3,5-triazin-2-yl)amino)-3-(4-cyanophenyl)propanoate] | 20 to 250 | 
6 | COC(=O)[C@H](Cc1ccc(C#N)cc1)Nc1nc(Cl)nc(Nc2cccc(CN3CCN(C(=O)OC(C)(C)C)CC3)c2)n1 [TA1002, tert-butyl (S)-4-(3-((4-chloro-6-((3-(4-cyanophenyl)-1-methoxy-1-oxopropan-2-yl)amino)-1,3,5-triazin-2-yl)amino)benzyl)piperazine-1-carboxylate] | > 250 | 
7 | COC(=O)[C@H](Cc1ccc(C#N)cc1)Nc1nc(NCc2nc3cc(Cl)ccc3[nH]2)nc(Nc2cccc(CN3CCN(C(=O)c4cccc(-n5cccn5)c4)CC3)c2)n1 [TA1060, methyl (S)-2-((4-((3-((4-(3-(1H-pyrazol-1-yl)benzoyl)piperazin-1-yl)methyl)phenyl)amino)-6-(((5-chloro-1H-benzo[d]imidazol-2-yl)methyl)amino)-1,3,5-triazin-2-yl)amino)-3-(4-cyanophenyl)propanoate] | > 250 | 
8 | CN(C)C(=O)[C@H](Cc1ccc(C#N)cc1)Nc1ncnc(Nc2cccc(CN3CCNCC3)c2)n1 [TA1011, (S)-3-(4-cyanophenyl)-N,N-dimethyl-2-((4-((3-(piperazin-1-ylmethyl)phenyl)amino)-1,3,5-triazin-2-yl)amino)propanamide] | > 250 | 
9 | CNc1nc(Nc2cccc(CN3CCN(C(=O)c4nccnc4O)CC3)c2)nc(N[C@@H](Cc2ccc(C#N)cc2)C(=O)OC)n1 [TA1035, methyl (S)-3-(4-cyanophenyl)-2-((4-((3-((4-(3-hydroxypyrazine-2-carbonyl)piperazin-1-yl)methyl)phenyl)amino)-6-(methylamino)-1,3,5-triazin-2-yl)amino)propanoate] | > 250 | 

Other lines, results leading:

Row | IC50 [1] [µM] | IC50 (cGAS/STING pathway) [µM] | Compound
10 | < 20 | > 100 | COC(=O)[C@H](Cc1ccc(C#N)cc1)Nc1nc(Nc2cccc(CN3CCN(C(=O)c4nccnc4O)CC3)c2)nc(N(C)CCc2nc3ccc(OC)cc3[nH]2)n1 [TA1053, methyl (S)-3-(4-cyanophenyl)-2-((4-((3-((4-(3-hydroxypyrazine-2-carbonyl)piperazin-1-yl)methyl)phenyl)amino)-6-((2-(6-methoxy-1H-benzo[d]imidazol-2-yl)ethyl)(methyl)amino)-1,3,5-triazin-2-yl)amino)propanoate]
11 | > 250 |  | COC(=O)[C@H](Cc1ccc(C#N)cc1)Nc1nc(Nc2cccc(CN3CCN(C(=O)c4csnn4)CC3)c2)nc(N(C)CCc2nc3ccc(OC)cc3[nH]2)n1 [TA1055, methyl (S)-2-((4-((3-((4-(1,2,3-thiadiazole-4-carbonyl)piperazin-1-yl)methyl)phenyl)amino)-6-((2-(6-methoxy-1H-benzo[d]imidazol-2-yl)ethyl)(methyl)amino)-1,3,5-triazin-2-yl)amino)-3-(4-cyanophenyl)propanoate]
12 | > 250 |  | COCCOCCNC(=O)[C@H](Cc1ccc(C#N)cc1)Nc1nc(NCc2nc3cc(F)ccc3[nH]2)nc(Nc2cccc(CN3CCNCC3)c2)n1 [TA1023, (S)-3-(4-cyanophenyl)-2-((4-(((5-fluoro-1H-benzo[d]imidazol-2-yl)methyl)amino)-6-((3-(piperazin-1-ylmethyl)phenyl)amino)-1,3,5-triazin-2-yl)amino)-N-(2-(2-methoxyethoxy)ethyl)propanamide]
13 | 20 to 250 |  | COC(=O)[C@H](Cc1ccc(C#N)cc1)Nc1nc(Nc2cccc(CN3CCNCC3)c2)nc(N(C)CCc2nc3ccc(OC)cc3[nH]2)n1 [TA1052, methyl (S)-3-(4-cyanophenyl)-2-((4-((2-(6-methoxy-1H-benzo[d]imidazol-2-yl)ethyl)(methyl)amino)-6-((3-(piperazin-d-ylmethyl)phenyl)amino)-1,3,5-triazin-2-yl)amino)propanoate]
14 | > 250 |  | COC(=O)[C@H](Cc1ccc(C#N)cc1)Nc1nc(NCc2nccn2C)nc(Nc2cccc(CN3CCNCC3)c2)n1 [TA1032, methyl (S)-3-(4-cyanophenyl)-2-((4-(((1-methyl-1H-imidazol-2-yl)methyl)amino)-6-((3-(piperazin-1-ylmethyl)phenyl)amino)-1,3,5-triazin-2-yl)amino)propanoate]
15 | 20 to 250 |  | CN(C)C(=O)[C@H](Cc1ccc(C#N)cc1)Nc1nc(NCc2nc3cc(F)ccc3[nH]2)nc(Nc2cccc(CN3CCN(C=O)CC3)c2)n1 [TA1016, (S)-3-(4-cyanophenyl)-2-((4-(((5-fluoro-1H-benzo[d]imidazol-2-yl)methyl)amino)-6-((3-((4-formylpiperazin-1-yl)methyl)phenyl)amino)-1,3,5-triazin-2-yl)amino)-N,N-dimethylpropanamide]
16 | > 250 |  | COC(=O)[C@H](Cc1ccc(C#N)cc1)Nc1nc(Nc2cccc(CN3CCN(C(C)=O)CC3)c2)nc(N(Cc2nc3cc(F)ccc3[nH]2)C(C)=O)n1 [TA1076, methyl (S)-2-((4-((3-((4-acetylpiperazin-1-yl)methyl)phenyl)amino)-6-(N-((5-fluoro-1H-benzo[d]imidazol-2-yl)methyl)acetamido)-1,3,5-triazin-2-yl)amino)-3-(4-cyanophenyl)propanoate]
17 | > 250 |  | COC(=O)[C@H](Cc1ccc(C#N)cc1)Nc1nc(Nc2cccc(CN3CCN(C(=O)[C@@H]4CCCO4)CC3)c2)nc(N(C)CCc2nc3ccc(OC)cc3[nH]2)n1 [TA1056, methyl (S)-3-(4-cyanophenyl)-2-((4-((2-(6-methoxy-1H-benzo[d]imidazol-2-yl)ethyl)(methyl)amino)-6-((3-((4-((S)-tetrahydrofuran-2-carbonyl)piperazin-1-yl)methyl)phenyl)amino)-1,3,5-triazin-2-yl)amino)propanoate]
